In publication PMC11513893, “Discovery of Oral Degraders of the ROS1 Fusion Protein with Potent Activity against Secondary Resistance Mutations” (Journal of Medicinal Chemistry, 2024):

Legend:
[1] = system: Ba/F3 CD74-ROS1 non mutant; experiment: Antiproliferation assay (Alamar Blue, 72 h); format: cell-based, mouse; conditions: Ba/F3 cells, cell growth inhibition
Description: (§1) To assess targeted degradation of ROS1 fusion proteins, we first established a mouse pro-B cell line Ba/F3 as a model expressing the CD74-ROS1 oncogene or CD74-ROS1 with clinically observed secondary/tertiary mutations. The Ba/F3 cell line is dependent on interleukin-3 for survival and proliferation. Upon transduction of oncogenic ROS1, Ba/F3 cells become independent of interleukin-3 but dependent on the transduced driver gene.
(§2) Ba/F3 immortalized murine bone marrow–derived pro-B cells were obtained from Creative Biogene (Shirley, NY) and cultured in RPMI supplemented with 10% FBS and IL3 (0.5 ng/mL). Ba/F3 cells expressing ROS1 variants were maintained in RPMI supplemented with 10% FBS and puromycin (0.7 mg/mL). […] Each compound was dissolved in DMSO and serially diluted in RPMI for cell culture experiments.
(§3) To assess the 72 h effect of drug treatment on cell proliferation, 2000 to 3000 cells were plated in replicates of three in 96-well plates. The plates were placed in an incubator at 37 °C, 5% CO2 for 72 h. Following drug treatments, the cells were incubated with the Alamar Blue Assay reagent (BioRad), 5 μL each well for 4 h at 37 °C and 5% CO2. Luminescence was measured on a multiplate reader and analyzed. […] IC50 values were determined using a nonlinear regression model with a sigmoidal dose response in GraphPad. The data were collected based on triplicate experiments, and presented as mean ± SD.
(§4) The resulting virus was used to infect Ba/F3 cells. After retroviral infection, Ba/F3 cells were selected by incubation with puromycin (0.7 mg/mL) for 2 weeks. For Ba/F3 cells infected by the CD74–ROS1 variants, IL3 was withdrawn from the culture medium at least 2 weeks before the experiments.

ROS1 = ROS1 degradation in Ba/F3 cells (WES immunoblotting); format: cell-based; conditions: for DC50: concentration needed to reduce ROS1 protein by 50%, Ba/F3 cells; for Dmax (%) (ROS1): maximal degradation of ROS1 in Ba/F3 cells
Description: Protein levels were analyzed using a WES instrument according to the WES User Guide from ProteinSimple in duplicate experiments. The samples were mixed with the fluorescent 5 master mix (ProteinSimple) and then heated at 95 °C for 5 min. Boiled samples, biotinylated protein ladder, antibody diluent, Streptavidin-HRP, primary antibodies, ProteinSimple horseradish peroxidase conjugated antirabbit or antimouse secondary antibodies, luminol-peroxide, and wash buffer were loaded into the WES plate (Wes 12–230 kDa Prefilled Plates with Split Buffer, ProteinSimple). The plates and capillary cartridges were loaded into the WES instrument, and protein separation, antibody incubation, and imaging were performed according to manufacturer’s instructions. Compass software (ProteinSimple) was used to acquire the data and to generate the virtual blot image reconstruction and chemiluminescence signal intensity electropherograms. […] Protein levels are expressed as the AUC of the peak chemiluminescence intensity. Antibodies against phospho-ROS1(Tyr2274/2334) (E8F5J), ROS1 (D4D6(R)) were obtained from Cell Signaling Technology.

Ba/F3 ROS1-G2032R = experiment: Antiproliferation assay; format: cell-based, mouse; conditions: Ba/F3 cells, cell growth inhibition, 72 h
Description: as §1, §2, §3, §4

IC50 ([1]; Mus musculus, BaF3, 72 h)	DC50 (ROS1)	IC50 (Ba/F3 ROS1-G2032R; Mus musculus, BaF3)	Compound	Dmax (%) (ROS1) (ROS1)	IC50 [1]	IC50 (Ba/F3 ROS1-G2032R)
15 ± 4 nM	21 nM	> 5000 nM	C[C@@H](Oc1cc(-c2cnn(C3CCN(CC4CCN(c5ccc6c(c5)C(=O)N(C5CCC(=O)NC5=O)C6=O)CC4)CC3)c2)cnc1N)c1c(Cl)ccc(F)c1Cl (stereo partly drawn) [7g, 5-(4-((4-(4-(6-Amino-5-((R)-1-(2,6-dichloro-3-fluorophenyl)ethoxy)pyridin-3-yl)-1H-pyrazol-1-yl)piperidin-1-yl)methyl)piperidin-1-yl)-2-(2,6-dioxopiperidin-3-yl)isoindoline-1,3-dione]	85%		
75 ± 9 nM	84 nM	> 10000 nM	COc1cc(N2CCC(N3CCN(C(=O)CN4CCN(c5ccc(NC6CCC(=O)NC6=O)cc5)CC4)CC3)CC2)ccc1Nc1ncc(Cl)c(Nc2ccccc2P(C)(C)=O)n1 (stereo not shown) [9s, 3-((4-(4-(2-(4-(1-(4-((5-Chloro-4-((2-(dimethylphosphoryl)phenyl)amino)pyrimidin-2-yl)amino)-3-methoxyphenyl)piperidin-4-yl)piperazin-1-yl)-2-oxoethyl)piperazin-1-yl)phenyl)amino)piperidine-2,6-dione]	40%		
713 ± 84 nM	586 nM	1150 ± 466 nM	Cc1cc(Nc2ncc(Cl)c(Nc3ccccc3S(=O)(=O)C(C)C)n2)c(OC(C)C)cc1C1CCN(C2CCN(CC3CN(c4ccc5c(c4)C(=O)N(C4CCC(=O)NC4=O)C5=O)C3)CC2)CC1 (stereo not shown) [8n, 5-(3-((4-(4-((5-Chloro-4-((2-(isopropylsulfonyl)phenyl)amino)pyrimidin-2-yl)amino)-5-isopropoxy-2-methylphenyl)-[1,4′-bipiperidin]-1′-yl)methyl)azetidin-1-yl)-2-(2,6-dioxopiperidin-3-yl)isoindoline-1,3-dione]	63%		
39 ± 34 nM	35 nM	2770 ± 1080 nM	Cc1cc(Nc2ncc(Cl)c(Nc3ccccc3S(=O)(=O)C(C)C)n2)c(OC(C)C)cc1C1CCN(C2CCN(C3CN(c4ccc5c(c4)C(=O)N(C4CCC(=O)NC4=O)C5=O)C3)CC2)CC1 (stereo not shown) [8m, 5-(3-(4-(4-((5-Chloro-4-((2-(isopropylsulfonyl)phenyl)amino)pyrimidin-2-yl)amino)-5-isopropoxy-2-methylphenyl)-[1,4′-bipiperidin]-1′-yl)azetidin-1-yl)-2-(2,6-dioxopiperidin-3-yl)isoindoline-1,3-dione]	92%		
264 ± 44 nM	310 nM	> 5000 nM	C[C@@H](Oc1cc(-c2cnn(C3CCN(c4cccc5c4C(=O)N(C4CCC(=O)NC4=O)C5=O)CC3)c2)cnc1N)c1c(Cl)ccc(F)c1Cl (stereo partly drawn) [7a, 4-(4-(4-(6-Amino-5-((R)-1-(2,6-dichloro-3-fluorophenyl)ethoxy)pyridin-3-yl)-1H-pyrazol-1-yl)piperidin-1-yl)-2-(2,6-dioxopiperidin-3-yl)isoindoline-1,3-dione]	67%		
72 ± 3 nM	77 nM	> 10000 nM	Cc1cc(Nc2ncc(Cl)c(Nc3ccccc3S(=O)(=O)C(C)C)n2)c(OC(C)C)cc1C1CCN(C2CN(CC3CCN(c4ccc5c(c4)C(=O)N(C4CCC(=O)NC4=O)C5=O)CC3)C2)CC1 (stereo not shown) [8r, 5-(4-((3-(4-(4-((5-Chloro-4-((2-(isopropylsulfonyl)phenyl)amino)pyrimidin-2-yl)amino)-5-isopropoxy-2-methylphenyl)piperidin-1-yl)azetidin-1-yl)methyl)piperidin-1-yl)-2-(2,6-dioxopiperidin-3-yl)isoindoline-1,3-dione]	91%		
82 ± 9 nM	101 nM	> 10000 nM	COc1cc(N2CCC(N3CCN(C(=O)CC4CCN(c5ccc(NC6CCC(=O)NC6=O)cc5)CC4)CC3)CC2)ccc1Nc1ncc(Cl)c(Nc2ccccc2P(C)(C)=O)n1 (stereo not shown) [9u, 3-((4-(4-(2-(4-(1-(4-((5-Chloro-4-((2-(dimethylphosphoryl)phenyl)amino)pyrimidin-2-yl)amino)-3-methoxyphenyl)piperidin-4-yl)piperazin-1-yl)-2-oxoethyl)piperidin-1-yl)phenyl)amino)piperidine-2,6-dione]	37%		
842 ± 172 nM	> 1000 nM	> 5000 nM	C[C@@H](Oc1cc(-c2cnn(C3CCN(CCC4CCN(c5ccc6c(c5)C(=O)N(C5CCC(=O)NC5=O)C6=O)CC4)CC3)c2)cnc1N)c1c(Cl)ccc(F)c1Cl (stereo partly drawn) [7h, 5-(4-(2-(4-(4-(6-Amino-5-((R)-1-(2,6-dichloro-3-fluorophenyl)ethoxy)pyridin-3-yl)-1H-pyrazol-1-yl)piperidin-1-yl)ethyl)piperidin-1-yl)-2-(2,6-dioxopiperidin-3-yl)isoindoline-1,3-dione]	11%		
93 ± 50 nM	88 nM	4710 ± 486 nM	Cc1cc(Nc2ncc(Cl)c(Nc3ccccc3S(=O)(=O)C(C)C)n2)c(OC(C)C)cc1C1CCN(CCCNc2ccc3c(c2)C(=O)N(C2CCC(=O)NC2=O)C3=O)CC1 (stereo not shown) [8i, 5-((3-(4-(4-((5-Chloro-4-((2-(isopropylsulfonyl)phenyl)amino)pyrimidin-2-yl)amino)-5-isopropoxy-2-methylphenyl)piperidin-1-yl)propyl)amino)-2-(2,6-dioxopiperidin-3-yl)isoindoline-1,3-dione]	84%		
128 ± 39 nM	145 nM	6630 ± 1800 nM	Cc1cc(Nc2ncc(Cl)c(Nc3ccccc3S(=O)(=O)C(C)C)n2)c(OC(C)C)cc1C1CCN(CCNc2ccc3c(c2)C(=O)N(C2CCC(=O)NC2=O)C3=O)CC1 (stereo not shown) [8h, 5-((2-(4-(4-((5-Chloro-4-((2-(isopropylsulfonyl)phenyl)amino)pyrimidin-2-yl)amino)-5-isopropoxy-2-methylphenyl)piperidin-1-yl)ethyl)amino)-2-(2,6-dioxopiperidin-3-yl)isoindoline-1,3-dione]	71%		
61 ± 5 nM	75 nM	491 ± 48 nM	COc1cc(N2CCC(N3CCN(C4CN(c5ccc6c(c5)C(=O)N(C5CCC(=O)NC5=O)C6=O)C4)CC3)CC2)ccc1Nc1ncc(Cl)c(Nc2ccccc2P(C)(C)=O)n1 (stereo not shown) [9d, 5-(3-(4-(1-(4-((5-Chloro-4-((2-(dimethylphosphoryl)phenyl)amino)pyrimidin-2-yl)amino)-3-methoxyphenyl)piperidin-4-yl)piperazin-1-yl)azetidin-1-yl)-2-(2,6-dioxopiperidin-3-yl)isoindoline-1,3-dione]	90%		
155 ± 21 nM	203 nM	2910 ± 742 nM	C[C@@H](Oc1cc(-c2cnn(C3CCN(c4ccc5c(c4)C(=O)N(C4CCC(=O)NC4=O)C5=O)CC3)c2)cnc1N)c1c(Cl)ccc(F)c1Cl (stereo partly drawn) [7e, 5-(4-(4-(6-Amino-5-((R)-1-(2,6-dichloro-3-fluorophenyl)ethoxy)pyridin-3-yl)-1H-pyrazol-1-yl)piperidin-1-yl)-2-(2,6-dioxopiperidin-3-yl)isoindoline-1,3-dione]	53%		
40 ± 6 nM	27 nM		Cc1cc(Nc2ncc(Cl)c(Nc3ccccc3S(=O)(=O)C(C)C)n2)c(OC(C)C)cc1C1CCN(C2CN(C3CCN(c4ccc5c(c4)C(=O)N(C4CCC(=O)NC4=O)C5=O)CC3)C2)CC1 (stereo not shown) [8p, 5-(4-(3-(4-(4-((5-Chloro-4-((2-(isopropylsulfonyl)phenyl)amino)pyrimidin-2-yl)amino)-5-isopropoxy-2-methylphenyl)piperidin-1-yl)azetidin-1-yl)piperidin-1-yl)-2-(2,6-dioxopiperidin-3-yl)isoindoline-1,3-dione]	93%		

Compound	IC50 ([1]; Mus musculus, BaF3, 72 h)	DC50 (ROS1)	IC50 (Ba/F3 ROS1-G2032R; Mus musculus, BaF3)	Dmax (%) (ROS1) (ROS1)	IC50 [1]	IC50 (Ba/F3 ROS1-G2032R)
4-(3-(4-(1-(4-((5-Chloro-4-((2-(dimethylphosphoryl)phenyl)amino)pyrimidin-2-yl)amino)-3-methoxyphenyl)piperidin-4-yl)piperazin-1-yl)azetidin-1-yl)-2-(2,6-dioxopiperidin-3-yl)isoindoline-1,3-dione [9j]		108 nM		77%	113 ± 16 nM	1040 ± 96 nM
